{"source": "patent US7816400B2", "about": "(The University of Hong Kong, priority 2007, dated 2010)", "key": {"anesthetized dogs": {"test_system": "anesthetized dogs", "experiment": "Experimental vagotonic AF in anesthetized dogs", "assay_type": "in vivo, dog", "conditions": "for summarized anti-AF efficacy: vehicle 0%; for animals in which sustained AF was not observed: vehicle: sustained AF in 100%; for prevention of AF induction, in words: 5 and 10 mg/kg intraduodenal, P<0.05 vs vehicle"}, "human atrial myocytes": {"test_system": "human atrial myocytes", "experiment": "Action potential in human atrial myocytes, perforated patch, current clamp", "assay_type": "cell-based"}, "INa": {"test_system": "INa", "experiment": "INa in guinea pig ventricular myocytes", "assay_type": "cell-based", "conditions": "30 and 100 μM", "method": "(§1) Guinea pigs of either gender (250-300 g) were sacrificed by cervical dislocation after anesthetization with pentobarbital (40 mg kg, i.p.). The procedure related to the use of animals in this invention was approved by the Animal Care and Use Committee for Teaching and Research of University of Hong Kong in accordance with the Guide for the Care and Use of Laboratory Animals (Institute of Laboratory Animal Resources, Commission on Life Sciences, National Research Council, 1996). Left atrial and ventricular myocytes from guinea pig hearts were enzymatically dissociated by the procedure described previously (Li et al., 2002a) and the isolated myocytes were kept in the K^+ storage medium.\n(§2) The Ca^2+-free cardioplegic solution for specimen transport contained (in mM) 50 KH2PO4, 8 MgSO4, 5 adenosine, 10 HEPES, 140 glucose, 100 mannitol, 10 taurine, pH was adjusted to 7.3 with KOH. Tyrode solution contained (in mM) 140 NaCl, 5.4 KCl, 1 MgCl2, 1 CaCl2, 0.33 NaH2PO4, 10 HEPES, 10 glucose, pH was adjusted to 7.4 with NaOH. […] INa was recorded under conditions of K^+-free and a symmetrical Na^+ (5 mM) in pipette and superfusion solutions as described previously (Li at al., 2002a).\n(§3) The whole-cell patch-clamp technique was used for electrophysiological recording. […] Membrane currents were recorded in voltage-clamp mode using an EPC-9 amplifier and Pulse software (HEKA, Lambrecht, Germany). […]"}, "IK.ACh": {"test_system": "IK.ACh", "experiment": "Carbachol-evoked IK.ACh in guinea pig atrial myocytes", "assay_type": "cell-based", "conditions": "for IK.ACh at +50 mV / IK.ACh at −100 mV: carbachol 5 μM; for IK.ACh at +50 mV: control 147.2; for IK.ACh at −100 mV: control −338.3±61.5; for block of carbachol-evoked IK.ACh, in words: 3 and 10 μM", "method": "as §1\n(§4) The whole-cell patch-clamp technique was used for electrophysiological recording. Borosilicate glass electrodes (1.2-mm OD) were pulled with a Brown-Flamming puller (model P-97, Sutter Instrument Co, Novato, Calif., USA) and had tip resistances of 2-3 MΩ when filled with pipette solution. Membrane currents were recorded in voltage-clamp mode using an EPC-9 amplifier and Pulse software (HEKA, Lambrecht, Germany). A 3-M KCl-agar salt bridge was used as reference electrode. The tip potentials were compensated before the pipette touched the cell. After a giga-ohm seal was obtained, the cell membrane was ruptured by gentle suction to establish the whole-cell configuration. The cell membrane capacitance (pF) was directly measured using the lock-in module of the Pulse software, and used for normalizing the current in individual cells. The series resistance (Rs) was 3-5 MΩ and was compensated by 50-70% to minimize voltage errors. Perforated patch configuration was used for recording action potential in human atrial cells and IKs in HEK 293 cells as described previously (Li et al., 2002b; Dong et al., 2006). Current signals were low-pass filtered at 5 kHz and stored on the hard disk of an IBM compatible computer."}, "Kv1.5": {"target": "T1, Kv1.5 (Homo sapiens, UniProt P22460)", "T1 construct": "expressed in transfected cells", "T1 sequence (P22460 whole entry)": "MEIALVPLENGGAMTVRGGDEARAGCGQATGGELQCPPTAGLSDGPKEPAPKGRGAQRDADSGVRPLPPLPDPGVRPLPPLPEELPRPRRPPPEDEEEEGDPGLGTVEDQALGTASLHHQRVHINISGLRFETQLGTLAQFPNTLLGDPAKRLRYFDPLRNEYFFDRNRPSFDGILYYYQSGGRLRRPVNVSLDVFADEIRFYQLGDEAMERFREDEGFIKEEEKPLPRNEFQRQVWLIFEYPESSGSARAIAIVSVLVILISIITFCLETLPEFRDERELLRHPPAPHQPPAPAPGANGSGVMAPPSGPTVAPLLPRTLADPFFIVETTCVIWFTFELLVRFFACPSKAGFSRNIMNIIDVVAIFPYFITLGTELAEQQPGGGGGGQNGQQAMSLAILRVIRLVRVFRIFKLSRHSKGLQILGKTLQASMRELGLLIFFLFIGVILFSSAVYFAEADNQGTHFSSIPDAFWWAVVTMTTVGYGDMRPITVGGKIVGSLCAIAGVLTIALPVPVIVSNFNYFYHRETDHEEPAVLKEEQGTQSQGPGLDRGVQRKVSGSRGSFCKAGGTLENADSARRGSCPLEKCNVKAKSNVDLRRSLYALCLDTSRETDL", "experiment": "Kv1.5 channel block in stably expressing HEK 293 cells", "assay_type": "cell-based", "conditions": "HEK 293 cells stably expressing Kv1.5, Table 3; read-out: Kv1.5 (IC50)", "method": "The established HEK 293 cell lines stably expressing the hERG channel gene, Kv1.5 (Tang et al., 2007), or recombinant human cardiac KCNQ1/KCNE1 channel current (IKs) (Dong et al., 2006) was maintained separately in Dulbecco's modified eagle medium (Invitrogen) supplemented with 10% fetal bovine serum and containing 400 μg/ml G418 (for hERG or Kv1.5 channels) or 100 μg/ml hygromycin (for IKs).\nas §4\nOther derivatives/analogs studied have no effect or a week inhibitory effect on Kv1.5."}, "Kunmin mice": {"test_system": "Kunmin mice", "experiment": "Acute toxicity in mice", "assay_type": "in vivo", "conditions": "oral, two-week observation"}, "ICa.L": {"test_system": "ICa.L", "experiment": "ICa.L in guinea pig ventricular myocytes", "assay_type": "cell-based", "conditions": "30 and 100 μM", "method": "as §1, §2, §3"}, "[1]": {"experiment": "Water solubility (statement)", "assay_type": "physicochemical", "conditions": "for injection application"}, "IKur": {"target": "T2, IKur (Homo sapiens, UniProt P22460)", "T2 construct": "endogenous in cells; host or cells: human right atrial myocytes, freshly isolated", "T2 sequence (P22460 whole entry)": "as above", "experiment": "IKur in human atrial myocytes, whole-cell patch clamp", "assay_type": "cell-based", "conditions": "for inhibition of voltage-dependent IKur (tail and step currents), in words: 3, 10 and 30 μM"}}, "note": "Entries after “also recorded” stand apart in the source; their conditions may differ.", "data": [{"compound": "COc1ccc(-c2cc(=O)c3c(O)cc(O)cc3o2)cc1", "note": "[Acacetin, 5,7-dihydroxy-4′-methoxyflavone]", "values": [{"measurement": "summarized anti-AF efficacy", "setting": "anesthetized dogs; 2.5 mg/kg intraduodenal", "result": 50, "unit": "%"}, {"measurement": "animals in which sustained AF was not observed", "setting": "anesthetized dogs; 2.5 mg/kg intraduodenal", "result": 50, "unit": "%"}, {"measurement": "summarized anti-AF efficacy", "setting": "anesthetized dogs; 5 mg/kg intraduodenal", "result": 85.7, "unit": "%"}, {"measurement": "animals in which sustained AF was not observed", "setting": "anesthetized dogs; 5 mg/kg intraduodenal", "result": 57, "unit": "%"}, {"measurement": "summarized anti-AF efficacy", "setting": "anesthetized dogs; 10 mg/kg intraduodenal", "result": 85.7, "unit": "%"}, {"measurement": "animals in which sustained AF was not observed", "setting": "anesthetized dogs; 10 mg/kg intraduodenal", "result": 57, "unit": "%"}, {"measurement": "prevention of AF induction, in words", "setting": "anesthetized dogs", "result": "significantly prevented AF"}, {"measurement": "prevention of AF induction, in words", "setting": "anesthetized dogs; listed as acacetin", "result": "significantly prevented AF induction"}, {"measurement": "incidence of AF, in words", "setting": "anesthetized dogs; acacetin 2.5, 5, 10 mg/kg, sotalol 5 mg/kg, 1.5-2.5 h after intraduodenal administration", "result": "reduced the incidence of AF"}, {"measurement": "rate dependence of APD prolongation, in words", "setting": "human atrial myocytes; 10 μM, 0.5 Hz vs 2 Hz", "result": "slight rate-dependent increase; also recorded: slight rate-dependent prolongation"}, {"measurement": "action potential duration (APD50, APD75, APD90), in words", "setting": "human atrial myocytes; 5 and 10 μM, 0.5, 1.0, 2.0 Hz, 36° C.", "result": "significantly prolonged"}, {"measurement": "resting membrane potential and amplitude of action potential, in words", "setting": "human atrial myocytes; 5 or 10 μM, 2 Hz", "result": "without affecting"}, {"measurement": "effect on INa, in words", "setting": "INa", "result": "no effect; also recorded: no inhibition"}, {"measurement": "effect on INa, in words", "setting": "INa; listed as acacetin", "result": "no effects"}, {"measurement": "IK.ACh at +50 mV", "setting": "IK.ACh; 3 μM, n=5", "result": "87.8±36.1", "unit": "pA"}, {"measurement": "IK.ACh at −100 mV", "setting": "IK.ACh; 3 μM, n=5", "result": "−180.2±36.7", "unit": "pA"}, {"measurement": "IK.ACh at +50 mV", "setting": "IK.ACh; 10 μM, n=6", "result": "55.7±26.2", "unit": "pA"}, {"measurement": "IK.ACh at −100 mV", "setting": "IK.ACh; 10 μM, n=6", "result": "−75.6±21.1", "unit": "pA"}, {"measurement": "block of carbachol-evoked IK.ACh, in words", "setting": "IK.ACh", "result": "substantially blocked"}, {"measurement": "block of carbachol-evoked IK.ACh, in words", "setting": "IK.ACh; listed as acacetin", "result": "substantially inhibits"}, {"measurement": "IC50", "setting": "Kv1.5", "result": 3.4, "unit": "µM"}, {"measurement": "abnormal activity compared to vehicle-control animals", "setting": "Kunmin mice; 0.3 g/kg three times", "result": "no abnormal activity"}, {"measurement": "animal death", "setting": "Kunmin mice; 900 mg/kg (0.3 g/kg three times at intervals of 1.5 h), 900 mg/kg", "result": "no animal death"}, {"measurement": "effect on ICa.L, in words", "setting": "ICa.L", "result": "no effect; also recorded: no inhibition"}, {"measurement": "effect on ICa.L, in words", "setting": "ICa.L; listed as acacetin", "result": "no effects"}, {"measurement": "water solubility, in words", "setting": "[1]", "result": "not water soluble"}, {"measurement": "inhibition of voltage-dependent IKur (tail and step currents), in words", "setting": "IKur", "result": "substantially inhibited"}, {"measurement": "inhibition of voltage-dependent IKur (tail and step currents), in words", "setting": "IKur; listed as acacetin", "result": "suppressed"}, {"measurement": "effect on IKur in human atrial myocytes, in words", "setting": "IKur; extract fraction / isolated compound, concentration not given", "result": "blocking effect"}, {"measurement": "IC50", "setting": "IKur; human atrial myocytes, +40 mV, 0.3 to 100 μM, Hill equation fit, read-out: IC50 for inhibiting IKur", "result": 3.2, "unit": "µM"}]}]}
